Series [1] is described as follows: refractive index (Na D-line) (dimensionless). Particulars: 293.2 K; 101.33 kPa; Liquid; Standard Abbe refractometry.
The conditions of series [2]: 293.2 K; 101.33 kPa; Liquid; Vibrating tube method.

This passage reports refractive index and mass density results from the NIST ThermoML archive (doi:10.1016/j.fluid.2009.09.019).

± gives the expanded uncertainty stated by the source.

Consider `C1CCCCC1` [cyclohexane], for which, in series [1], the refractive index is given as 1.4263 ± 0.0005. Besides, the mass density in series [2] is 778.12 ± 0.61 kg/m3. Consider `Cc1ccccc1` [toluene], for which the refractive index in series [1] turned out to be 1.4967 ± 0.0004. `CCCCCCC` [heptane]: in series [1], the refractive index amounted to 1.3873 ± 0.0004. Besides, in series [2], the mass density amounted to 684.1 ± 0.25 kg/m3. The matching figures for `O=C1CCCO1` [γ-butyrolactone]: 1.4344 ± 0.0005 and 1128.7 ± 1.1 kg/m3. In the same order, the values of `CCCCCC` [hexane] are 1.375 ± 0.0004 and 660.1 ± 0.25 kg/m3.
